This is an account of results in patent publication US10988477B2 (Merck Patent GmbH, priority 2018, dated 2021).

The target of the first assay is GCN2 kinase (Homo sapiens, UniProt Q9P2K8). The experiment in a line: GCN2 enzyme inhibition assay (Transcreener ADP2 fluorescence polarization). The assay is classed as biochemical. As to conditions: Enzyme activity for compounds of Formula IV; Ki(app), 280 μM ATP, 25° C. Put shortly: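 4 nM GCN2 + 200 μM (RS)7 + compound (0–8 μM), 10 min preinc.; start with ATP (280 μM final); 1 h, 25 °C; pH 7.5 Tris/NaCl/MgCl2/DTT; ADP FP readout; IC50, Ki(app) via tight-binding fit.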
GCN2 kinase, sequence (Q9P2K8 whole entry): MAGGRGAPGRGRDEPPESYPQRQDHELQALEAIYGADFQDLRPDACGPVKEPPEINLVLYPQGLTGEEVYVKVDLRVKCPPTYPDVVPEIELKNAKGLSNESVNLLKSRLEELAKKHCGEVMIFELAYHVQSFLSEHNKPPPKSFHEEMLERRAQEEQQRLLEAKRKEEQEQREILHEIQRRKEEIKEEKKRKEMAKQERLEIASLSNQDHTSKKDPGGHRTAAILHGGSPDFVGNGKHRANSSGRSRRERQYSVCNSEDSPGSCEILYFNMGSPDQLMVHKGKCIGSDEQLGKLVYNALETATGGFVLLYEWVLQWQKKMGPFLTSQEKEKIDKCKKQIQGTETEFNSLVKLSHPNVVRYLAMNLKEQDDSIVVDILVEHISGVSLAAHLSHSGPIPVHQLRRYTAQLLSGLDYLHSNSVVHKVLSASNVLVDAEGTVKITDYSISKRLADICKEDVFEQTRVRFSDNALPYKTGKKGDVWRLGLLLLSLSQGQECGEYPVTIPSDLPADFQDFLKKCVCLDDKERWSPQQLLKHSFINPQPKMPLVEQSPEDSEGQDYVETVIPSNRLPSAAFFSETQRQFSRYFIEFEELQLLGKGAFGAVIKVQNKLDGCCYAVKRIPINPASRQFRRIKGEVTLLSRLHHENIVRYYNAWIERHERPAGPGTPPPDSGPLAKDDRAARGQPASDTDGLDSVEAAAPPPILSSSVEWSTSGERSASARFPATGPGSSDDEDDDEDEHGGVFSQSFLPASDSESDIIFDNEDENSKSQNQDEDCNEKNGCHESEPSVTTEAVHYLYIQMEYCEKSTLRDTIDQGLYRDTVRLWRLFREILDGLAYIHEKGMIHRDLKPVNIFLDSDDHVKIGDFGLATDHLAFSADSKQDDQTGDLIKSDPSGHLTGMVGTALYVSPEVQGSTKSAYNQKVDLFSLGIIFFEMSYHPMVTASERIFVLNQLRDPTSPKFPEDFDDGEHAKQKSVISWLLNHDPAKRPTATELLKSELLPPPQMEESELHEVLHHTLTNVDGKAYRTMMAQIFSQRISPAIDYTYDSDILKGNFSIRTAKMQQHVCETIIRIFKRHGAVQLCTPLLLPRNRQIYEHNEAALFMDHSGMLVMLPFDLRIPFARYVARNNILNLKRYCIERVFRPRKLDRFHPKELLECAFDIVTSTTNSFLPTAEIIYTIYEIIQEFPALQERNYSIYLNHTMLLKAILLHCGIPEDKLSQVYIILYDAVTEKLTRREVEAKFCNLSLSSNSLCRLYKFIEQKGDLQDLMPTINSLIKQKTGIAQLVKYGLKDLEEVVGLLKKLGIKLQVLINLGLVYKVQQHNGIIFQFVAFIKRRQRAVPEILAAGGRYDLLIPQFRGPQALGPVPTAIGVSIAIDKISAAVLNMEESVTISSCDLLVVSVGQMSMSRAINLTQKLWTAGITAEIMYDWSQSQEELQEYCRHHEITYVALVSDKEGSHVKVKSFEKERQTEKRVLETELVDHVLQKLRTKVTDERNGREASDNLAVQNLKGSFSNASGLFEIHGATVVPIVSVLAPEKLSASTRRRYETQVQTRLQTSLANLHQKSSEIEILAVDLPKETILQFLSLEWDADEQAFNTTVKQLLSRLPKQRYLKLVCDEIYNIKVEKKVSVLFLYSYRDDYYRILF
A general note: Fluorescence polarisation rises when a labelled molecule tumbles more slowly, as on binding a larger partner.
`CC1CN(c2nc(-c3cnc4cnc(C(F)(F)F)cn34)ncc2F)CC(c2cn[nH]c2)O1` (single isomer, unassigned) [IV-334, 4-(5-Fluoro-2-(6-(trifluoromethyl)imidazo[1,2-a]pyrazin-3-yl)pyrimidin-4-yl)-2-methyl-6-(1H-pyrazol-4-yl)morpholine] had a Ki of 100 to 1000 nM.
On the same count and under the same terms, the figure for `C[C@H]1CCCCN1c1ccnc(-c2cnc3cnc(C(F)(F)F)cn23)n1` (single isomer, unassigned) [IV-597] is 10 to 100 nM; for `FC(F)(F)c1cn2c(-c3nccc(N4CCCC(c5nnc[nH]5)C4)n3)cnc2cn1` (stereo not shown) [IV-326, 3-(4-(3-(4H-1,2,4-Triazol-3-yl)piperidin-1-yl)pyrimidin-2-yl)-6-(trifluoromethyl)imidazo[1,2-a]pyrazine] it is 100 to 1000 nM; for `Brc1cn2c(-c3nccc(N4CCNC(c5c[nH]cn5)C4)n3)cnc2cn1` (stereo not shown) [IV-348, 3-(4-(3-(1H-Imidazol-4-yl)piperazin-1-yl)pyrimidin-2-yl)-6-bromoimidazo[1,2-a]pyrazine] it is 10 to 100 nM.
On the same count and under the same terms, the figure for `FC(F)(F)c1cn2c(-c3nccc(N4CCCC5(CCOC5)C4)n3)cnc2cn1` (stereo not shown) [IV-496, 7-(2-(6-(Trifluoromethyl)imidazo[1,2-a]pyrazin-3-yl)pyrimidin-4-yl)-2-oxa-7-azaspiro[4.5]decane] is 100 to 1000 nM.
The same measure, in the same setting: the figure for `CS(=O)(=O)NCC(=O)Nc1cccc(-c2ccnc(-c3cnc4cnc(C(F)F)cn34)n2)c1` [IV-173, N-(3-(2-(6-(Difluoromethyl)imidazo[1,2-a]pyrazin-3-yl)pyrimidin-4-yl)phenyl)-2-(methylsulfonamido)acetamide] is 100 to 1000 nM.
In turn, `FC(F)(F)c1cn2c(-c3nccc(N4CCCC(c5ncno5)C4)n3)cnc2cn1` (stereo not shown) [IV-322, 5-(1-(2-(6-(Trifluoromethyl)imidazo[1,2-a]pyrazin-3-yl)pyrimidin-4-yl)piperidin-3-yl)-1,2,4-oxadiazole] registered a Ki of 100 to 1000 nM.
On the same count and under the same terms, under `CC(=O)N1CCN(c2ccnc(-c3cnc4cnc(C#N)cn34)n2)CC1` [IV-31, 3-(4-(4-Acetylpiperazin-1-yl)pyrimidin-2-yl)imidazo[1,2-a]pyrazine-6-carbonitrile] stands 100 to 1000 nM; under `N#C[C@@H]1CCN(c2ccnc(-c3cnc4cnc(C(F)(F)F)cn34)n2)C1` (single isomer, unassigned) [IV-521], 100 to 1000 nM; under `O=C1CN(C2CCCN(c3ccnc(-c4cnc5cnc(C(F)(F)F)cn45)n3)C2)CCN1` (stereo not shown) [IV-490, 4-(1-(2-(6-(Trifluoromethyl)imidazo[1,2-a]pyrazin-3-yl)pyrimidin-4-yl)piperidin-3-yl)piperazin-2-one], 100 to 1000 nM.
On the same count and under the same terms, under `NC(=O)c1cn2c(-c3nccc(N4CCC5(CCCO5)CC4)n3)cnc2cn1` [IV-269, 3-(4-(1-Oxa-8-azaspiro[4.5]decan-8-yl)pyrimidin-2-yl)imidazo[1,2-a]pyrazine-6-carboxamide] stands 10 to 100 nM; under `CC(=O)NCC1CCCN(c2ccnc(-c3cnc4cnc(C(F)(F)F)cn34)n2)C1` (stereo not shown) [IV-526, N-((1-(2-(6-(Trifluoromethyl)imidazo[1,2-a]pyrazin-3-yl)pyrimidin-4-yl)piperidin-3-yl)methyl)acetamide], 100 to 1000 nM; under `FC(F)(F)c1cn2c(-c3nccc(N4CCC5(CC4)COC5)n3)cnc2cn1` [IV-511, 7-(2-(6-(Trifluoromethyl)imidazo[1,2-a]pyrazin-3-yl)pyrimidin-4-yl)-2-oxa-7-azaspiro[3.5]nonane], 100 to 1000 nM.
On the same count and under the same terms, under `CC1CC(c2cn[nH]c2)C(C)N(c2ccnc(-c3cnc4cnc(C(F)(F)F)cn34)n2)C1` (single isomer, unassigned) [IV-310] stands 10 to 100 nM.
`N=S1(=O)CCN(c2ccnc(-c3cnc4cnc(C(F)(F)F)cn34)n2)CC1` [IV-729] came in with a Ki of over 1000 nM.
`Fc1n[nH]cc1C1=CCCN(c2ccnc(-c3cnc4cnc(C(F)(F)F)cn34)n2)C1` [IV-430, 3-(4-(5-(3-Fluoro-1H-pyrazol-4-yl)-3,6-dihydropyridin-1(2H)-yl)pyrimidin-2-yl)-6-(trifluoromethyl)imidazo[1,2-a]pyrazine] had a Ki of under 10 nM.
The same measure, in the same setting: the figure for `CN1C(=O)CO[C@H]2CN(c3ccnc(-c4cnc5cnc(C(F)(F)F)cn45)n3)C[C@@H]21` (single isomer, unassigned) [IV-551] is 100 to 1000 nM.
The same measure, in the same setting: under `NCCC1CN(c2ccnc(-c3cnc4cnc(C(F)(F)F)cn34)n2)CCO1` (stereo not shown) [IV-486] stands 100 to 1000 nM; under `C[C@@H]1[C@H](c2cn[nH]c2)N(c2ccnc(-c3cnc4cnc(Br)cn34)n2)CCN1C` (relative stereo) [IV-393, Cis-6-Bromo-3-(4-(3,4-dimethyl-2-(1H-pyrazol-4-yl)piperazin-1-yl)pyrimidin-2-yl)imidazo[1,2-a]pyrazine], 100 to 1000 nM.
On the same count and under the same terms, under `CC(=O)N1CCCN(c2ccnc(-c3cnc4cnc(C(N)=O)cn34)n2)CC1` [IV-190, 3-(4-(4-Acetyl-1,4-diazepan-1-yl)pyrimidin-2-yl)imidazo[1,2-a]pyrazine-6-carboxamide] stands 100 to 1000 nM; under `CC1CCCN(c2cccc(-c3cnc4cnc(C(N)=O)cn34)n2)C1` (stereo not shown) [IV-205, 3-(6-(3-Methylpiperidin-1-yl)pyridin-2-yl)imidazo[1,2-a]pyrazine-6-carboxamide], 10 to 100 nM; under `CC1CCCCN1c1ccnc(-c2cnc3cnc(C(N)=O)cn23)n1` (stereo not shown) [IV-261, 3-(4-(2-Methylpiperidin-1-yl)pyrimidin-2-yl)imidazo[1,2-a]pyrazine-6-carboxamide], 10 to 100 nM.
As for `FC(F)(F)c1cn2c(-c3nccc(N4CCCC(n5cccn5)C4)n3)cnc2cn1` (stereo not shown) [IV-665, 3-(4-(3-(1H-Pyrazol-1-yl)piperidin-1-yl)pyrimidin-2-yl)-6-(trifluoromethyl)imidazo[1,2-a]pyrazine], the Ki fell in the range of 100 to 1000 nM.
Still for that read-out and setting: under `FC(F)(F)c1cn2c(-c3nccc(N4CCCC(C5CCOC5)C4)n3)cnc2cn1` (single isomer, unassigned) [IV-544, 3-(4-(3-(Tetrahydrofuran-3-yl)piperidin-1-yl)pyrimidin-2-yl)-6-(trifluoromethyl)imidazo[1,2-a]pyrazine] stands 100 to 1000 nM; under `CS(=N)(=O)c1cccc(-c2ccnc(-c3cnc4cnc(C(F)F)cn34)n2)c1` (stereo not shown) [IV-79, (3-(2-(6-(difluoromethyl)imidazo[1,2-a]pyrazin-3-yl)pyrimidin-4-yl)phenyl)(imino)(methyl)-λ^6-sulfanone], 100 to 1000 nM; under `CC1CCCN(c2ccnc(-c3cnc4cnc(C(F)(F)F)cn34)n2)C1C` (stereo not shown) [IV-519, 3-(4-(2,3-Dimethylpiperidin-1-yl)pyrimidin-2-yl)-6-(trifluoromethyl)imidazo[1,2-a]pyrazine], 10 to 100 nM.
On the same count and under the same terms, the figure for `OCCN1CCN(c2ccnc(-c3cnc4cnc(C(F)(F)F)cn34)n2)CC1` [IV-617, 2-(4-(2-(6-(Trifluoromethyl)imidazo[1,2-a]pyrazin-3-yl)pyrimidin-4-yl)piperazin-1-yl)ethan-1-ol] is 100 to 1000 nM.
Same read-out and setting: the figure for `CC(=O)N1CCN(c2ccnc(-c3cnc4cnc(-c5ccc(CO)cc5)cn34)n2)CC1` [IV-302, 1-(4-(2-(6-(4-(Hydroxymethyl)phenyl)imidazo[1,2-a]pyrazin-3-yl)pyrimidin-4-yl)piperazin-1-yl)ethan-1-one] is 100 to 1000 nM; for `O=C(Nc1cccnc1)[C@@H]1CCCN(c2ccnc(-c3cnc4cnc(C(F)(F)F)cn34)n2)C1` [IV-738] it is over 1000 nM.

Still in this assay, the particulars now being: compounds of Formula II; 280 μM ATP, 4 nM GCN2 kinase.
In turn, `FC(F)(F)c1ccc2ncc(-c3ccnc(N4CCCC(c5ncc[nH]5)C4)c3)n2n1` (stereo not shown) [II-746] showed a Ki of 10 to 1000 nM.
Still for that read-out and setting: under `CC1CC(N=S(C)(C)=O)CN(c2cc(-c3cnc4ccc(C#N)nn34)ncn2)C1` (stereo not shown) [II-702, 3-(6-(3-((Dimethyl(oxo)-λ^6-sulfanylidene)amino)-5-methylpiperidin-1-yl)pyrimidin-4-yl)imidazo[1,2-b]pyridazine-6-carbonitrile] stands 10 to 1000 nM; under `CS(=O)(=O)NCC1CN(c2cc(-c3cnc4ccc(C(F)F)nn34)ncn2)C[C@@H]2CCCN12` (stereo partly drawn) [II-560, N-(((8aS)-2-(6-(6-(Difluoromethyl)imidazo[1,2-b]pyridazin-3-yl)pyrimidin-4-yl)octahydropyrrolo[1,2-a]pyrazin-4-yl)methyl)methanesulfonamide], under 10 nM; under `CS(=N)(=O)CC1CCCN(c2cc(-c3cnc4ccc(C(F)F)nn34)ncn2)C1` (single isomer, unassigned) [II-638, ((1-(6-(6-(Difluoromethyl)imidazo[1,2-b]pyridazin-3-yl)pyrimidin-4-yl)piperidin-3-yl)methyl)(imino)(methyl)-λ^6-sulfanone], 10 to 1000 nM.
Same read-out and setting: the figure for `CC1CCC(NS(C)(=O)=O)CN1c1cc(-c2cnc3ccc(C(F)F)nn23)ncn1` (stereo not shown) [II-552, N-(1-(6-(6-(Difluoromethyl)imidazo[1,2-b]pyridazin-3-yl)pyrimidin-4-yl)-6-methylpiperidin-3-yl)methanesulfonamide] is 10 to 1000 nM.
In turn, `Cc1c(CNS(C)(=O)=O)cccc1-c1cc(-c2cnc3ccc(C(F)F)nn23)ncn1` [II-575, N-[[3-[6-[6-(Difluoromethyl)imidazo[1,2-b]pyridazin-3-yl]pyrimidin-4-yl]-2-methyl-phenyl]methyl]methanesulfonamide] had a Ki of 10 to 1000 nM.
As to `CC1CC(P(C)(C)=O)CN(c2cc(-c3cnc4ccc(C(F)(F)F)nn34)ncn2)C1` (stereo not shown) [II-712, 3-[6-(3-Dimethylphosphoryl-5-methyl-1-piperidyl)pyrimidin-4-yl]-6-(trifluoromethyl)imidazo[1,2-b]pyridazine], the Ki was over 1000 nM.

Staying with this assay, now noted: compounds of Formula V; 280 μM ATP, 4 nM GCN2 kinase.
Molecule `C[C@@H]1CN(c2ccnc(-c3cnc4sc(C(F)F)cn34)n2)C[C@H](CNS(C)(=O)=O)C1(F)F` (stereo in doubt) [Compound V-2, N-((-1-(2-(2-(difluoromethyl)imidazo[2,1-b]thiazol-5-yl)pyrimidin-4-yl)-4,4-difluoro-5-methylpiperidin-3-yl)methyl)methanesulfonamide] displayed a Ki of 100 to 1000 nM.
